ChEMBL document CHEMBL4028821, “Synthesis and structure-activity relationship study of pyrazolo[3,4-d]pyrimidines as tyrosine kinase RET inhibitors” (Bioorg Med Chem Lett, 2017)

How the values were obtained:
[1] = target: Proto-oncogene tyrosine-protein kinase receptor Ret (Mus musculus) (UniProt P35546); assay: Inhibition of RET in mouse BAF3 cells harboring CCDC6-RET fusion protein assessed as suppression of AKT phosphorylation after 2 hrs by Western blot method; assay type: cell-based
[2] = target: Proto-oncogene tyrosine-protein kinase receptor Ret (Mus musculus) (UniProt P35546); assay: Inhibition of RET in mouse BAF3 cells harboring CCDC6-RET fusion protein assessed as suppression of STAT3 phosphorylation after 2 hrs by Western blot method; assay type: cell-based
[3] = test system: BaF3; assay: Antiproliferative activity against mouse BAF3 cells harboring CCDC6-RET fusion protein after 72 hrs by CCK8 assay; settings: BaF3, 72 h
[4] = target: Proto-oncogene tyrosine-protein kinase receptor Ret (Mus musculus) (UniProt P35546); assay: Inhibition of RET phosphorylation in mouse BAF3 cells harboring CCDC6-RET fusion protein after 2 hrs by Western blot method; assay type: cell-based
[5] = target: Vascular endothelial growth factor receptor 2 (Homo sapiens, UniProt P35968); assay: Inhibition of VEGFR2 (unknown origin) at 1 uM
Sequence of Vascular endothelial growth factor receptor 2 (P35968 whole entry, the tested form may be a part): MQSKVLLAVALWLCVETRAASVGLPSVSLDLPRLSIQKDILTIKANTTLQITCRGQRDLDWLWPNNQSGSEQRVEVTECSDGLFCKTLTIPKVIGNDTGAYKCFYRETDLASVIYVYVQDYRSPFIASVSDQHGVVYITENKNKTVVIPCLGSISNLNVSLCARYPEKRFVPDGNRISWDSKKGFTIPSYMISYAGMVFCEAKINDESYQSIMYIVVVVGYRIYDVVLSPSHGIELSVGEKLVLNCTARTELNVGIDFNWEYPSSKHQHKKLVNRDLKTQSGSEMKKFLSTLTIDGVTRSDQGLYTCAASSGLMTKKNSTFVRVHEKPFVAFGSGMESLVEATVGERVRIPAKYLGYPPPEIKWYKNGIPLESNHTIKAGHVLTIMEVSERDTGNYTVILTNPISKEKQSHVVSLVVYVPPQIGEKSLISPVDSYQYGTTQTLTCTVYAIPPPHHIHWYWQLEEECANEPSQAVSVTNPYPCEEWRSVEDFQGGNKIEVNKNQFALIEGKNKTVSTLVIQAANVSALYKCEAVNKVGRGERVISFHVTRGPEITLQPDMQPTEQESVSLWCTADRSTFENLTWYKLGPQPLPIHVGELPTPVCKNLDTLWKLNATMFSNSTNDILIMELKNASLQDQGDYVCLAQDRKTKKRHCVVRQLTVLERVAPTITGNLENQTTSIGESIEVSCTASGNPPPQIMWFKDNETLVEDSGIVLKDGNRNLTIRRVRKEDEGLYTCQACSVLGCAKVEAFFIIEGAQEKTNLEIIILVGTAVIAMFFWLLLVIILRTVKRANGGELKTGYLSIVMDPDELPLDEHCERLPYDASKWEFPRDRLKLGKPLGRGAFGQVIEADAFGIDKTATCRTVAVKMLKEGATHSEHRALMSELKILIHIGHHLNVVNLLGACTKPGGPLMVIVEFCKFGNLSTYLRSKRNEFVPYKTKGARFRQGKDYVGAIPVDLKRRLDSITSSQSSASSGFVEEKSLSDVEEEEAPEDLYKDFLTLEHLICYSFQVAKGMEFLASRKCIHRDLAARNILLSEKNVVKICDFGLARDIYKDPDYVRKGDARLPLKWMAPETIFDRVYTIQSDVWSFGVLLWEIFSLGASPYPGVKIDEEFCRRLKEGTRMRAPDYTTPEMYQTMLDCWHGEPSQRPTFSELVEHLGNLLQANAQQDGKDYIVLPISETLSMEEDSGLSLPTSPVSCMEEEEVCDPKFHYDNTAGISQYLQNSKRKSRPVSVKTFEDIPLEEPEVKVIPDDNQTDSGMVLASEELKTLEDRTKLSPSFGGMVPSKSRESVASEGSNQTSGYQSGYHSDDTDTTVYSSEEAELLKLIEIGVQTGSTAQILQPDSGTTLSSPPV

[6] = target: Proto-oncogene tyrosine-protein kinase receptor Ret (Mus musculus) (UniProt P35546); assay: Inhibition of RET in mouse BAF3 cells harboring CCDC6-RET fusion protein assessed as suppression of RET phosphorylation after 2 hrs by Western blot method; assay type: cell-based
[7] = target: Proto-oncogene tyrosine-protein kinase receptor Ret (Homo sapiens, UniProt P07949); assay: Inhibition of recombinant RET (unknown origin) using poly (Glu,Tyr) 4:1 substrate after 60 mins by ELISA
Sequence of Proto-oncogene tyrosine-protein kinase receptor Ret (P07949 whole entry): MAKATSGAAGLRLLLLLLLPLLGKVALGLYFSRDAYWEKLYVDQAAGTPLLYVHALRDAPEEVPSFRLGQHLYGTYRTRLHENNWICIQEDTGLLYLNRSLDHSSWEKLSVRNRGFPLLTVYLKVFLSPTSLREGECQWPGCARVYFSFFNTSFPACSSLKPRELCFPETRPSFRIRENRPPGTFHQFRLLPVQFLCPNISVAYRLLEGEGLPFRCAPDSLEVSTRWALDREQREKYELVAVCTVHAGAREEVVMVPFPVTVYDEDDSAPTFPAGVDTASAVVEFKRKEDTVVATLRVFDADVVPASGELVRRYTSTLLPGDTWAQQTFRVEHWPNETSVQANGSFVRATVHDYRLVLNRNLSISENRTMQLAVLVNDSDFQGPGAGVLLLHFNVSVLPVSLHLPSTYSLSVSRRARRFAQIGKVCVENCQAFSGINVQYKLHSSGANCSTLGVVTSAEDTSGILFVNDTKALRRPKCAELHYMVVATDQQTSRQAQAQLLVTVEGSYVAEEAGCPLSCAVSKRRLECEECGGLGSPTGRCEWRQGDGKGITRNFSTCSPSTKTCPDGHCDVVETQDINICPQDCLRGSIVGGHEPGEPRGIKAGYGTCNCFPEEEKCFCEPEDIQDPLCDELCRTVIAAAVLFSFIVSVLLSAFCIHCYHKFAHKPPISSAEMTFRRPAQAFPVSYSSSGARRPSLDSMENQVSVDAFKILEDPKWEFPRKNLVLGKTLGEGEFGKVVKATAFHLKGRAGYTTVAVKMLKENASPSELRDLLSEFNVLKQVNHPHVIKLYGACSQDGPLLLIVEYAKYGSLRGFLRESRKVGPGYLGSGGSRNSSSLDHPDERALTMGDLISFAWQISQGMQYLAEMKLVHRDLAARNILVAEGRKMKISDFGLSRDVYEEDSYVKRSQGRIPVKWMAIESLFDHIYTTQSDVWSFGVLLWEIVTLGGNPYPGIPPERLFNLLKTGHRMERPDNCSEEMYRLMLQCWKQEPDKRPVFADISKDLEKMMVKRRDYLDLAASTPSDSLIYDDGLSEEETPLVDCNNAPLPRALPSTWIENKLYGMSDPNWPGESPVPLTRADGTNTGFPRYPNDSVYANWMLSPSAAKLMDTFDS

Sequence of Proto-oncogene tyrosine-protein kinase receptor Ret (Mus musculus) (P35546 whole entry, the tested form may be a part): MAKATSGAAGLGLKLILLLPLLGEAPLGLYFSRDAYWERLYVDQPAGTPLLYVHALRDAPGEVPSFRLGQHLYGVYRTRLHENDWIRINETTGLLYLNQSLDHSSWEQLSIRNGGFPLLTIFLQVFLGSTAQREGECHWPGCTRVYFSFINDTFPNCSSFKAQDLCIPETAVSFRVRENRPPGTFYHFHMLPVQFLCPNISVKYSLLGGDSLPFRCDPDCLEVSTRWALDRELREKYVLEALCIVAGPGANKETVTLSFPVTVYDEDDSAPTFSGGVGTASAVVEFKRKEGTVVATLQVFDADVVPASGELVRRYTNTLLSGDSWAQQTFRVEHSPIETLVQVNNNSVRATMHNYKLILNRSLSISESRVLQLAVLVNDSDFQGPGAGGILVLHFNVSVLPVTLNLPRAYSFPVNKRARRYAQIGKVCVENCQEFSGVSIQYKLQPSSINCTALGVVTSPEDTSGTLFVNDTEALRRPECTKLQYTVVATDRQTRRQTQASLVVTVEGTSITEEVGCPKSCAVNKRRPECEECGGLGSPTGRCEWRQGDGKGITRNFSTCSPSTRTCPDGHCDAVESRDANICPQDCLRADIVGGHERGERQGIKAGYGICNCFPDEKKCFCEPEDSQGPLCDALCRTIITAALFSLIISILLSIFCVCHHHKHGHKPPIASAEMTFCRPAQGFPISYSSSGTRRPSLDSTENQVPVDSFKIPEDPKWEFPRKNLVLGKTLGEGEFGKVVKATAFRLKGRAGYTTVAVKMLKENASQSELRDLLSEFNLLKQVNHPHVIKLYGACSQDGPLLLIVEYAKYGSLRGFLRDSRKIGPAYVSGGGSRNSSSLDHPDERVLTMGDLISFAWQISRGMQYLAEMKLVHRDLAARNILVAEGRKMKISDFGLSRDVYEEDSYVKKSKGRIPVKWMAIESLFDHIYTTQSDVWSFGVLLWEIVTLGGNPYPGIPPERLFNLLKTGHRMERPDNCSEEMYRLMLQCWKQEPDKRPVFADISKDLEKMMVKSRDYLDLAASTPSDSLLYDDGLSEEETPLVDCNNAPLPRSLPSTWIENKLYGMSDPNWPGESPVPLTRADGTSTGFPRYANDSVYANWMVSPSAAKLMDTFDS

| SMILES | inhibition [1] | inhibition [2] | IC50 [3] [µM] | inhibition [4] | inhibition (INH) [5] | inhibition [6] | IC50 [7] [µM] |
| --- | --- | --- | --- | --- | --- | --- | --- |
| CC(O)c1cc(-c2nn(C(C)C)c3ncnc(N)c23)no1 (centres undefined) | Dose-dependent effect | Dose-dependent effect | 0.433 | Dose-dependent effect | Not Active | Dose-dependent effect |  |
| CC(C)n1nc(C#Cc2ccccc2)c2c(N)ncnc21 |  |  | > 1 |  |  |  | 0.0565 |
| CC(C)n1nc(-c2cc(CO)on2)c2c(N)ncnc21 |  |  | 0.454 |  |  |  |  |
